Patent US6927236B2, “Coniosulfides and their derivatives, processes for preparing them, and their use as pharmaceuticals” (Aventis Pharma Deutschland GmbH., priority 2001, dated 2005)

What was measured:
[1] = target: T1, amyloid precursor protein - FE65 interaction (Homo sapiens, UniProt O00213); experiment: Test for the ability to inhibit the APP-FE65 interaction (energy transfer, Eu-cryptate/XL665); format: binding; settings: for IC50: biotin-cAPP / GST-PTB2, emission at 665 nm and 615 nm, read-out: Inhibition of the amyloid precursor protein - FE65 interaction, IC50
T1 construct: 1 μL of GST-PTB2 (20 nM in Buffer A) was added
T1 sequence (O00213 542-699 limits assumed): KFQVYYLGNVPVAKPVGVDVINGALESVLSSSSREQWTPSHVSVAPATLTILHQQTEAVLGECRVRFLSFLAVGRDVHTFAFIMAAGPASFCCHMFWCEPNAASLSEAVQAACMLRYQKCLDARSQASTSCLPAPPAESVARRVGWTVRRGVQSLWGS
Experimental: Test for the Ability to Inhibit the APP-FE65 Interaction
1 μl of the solution to be tested was pipetted, together with 30 μM 32 mer cAPP in Buffer A, into a microtiter plate. 1 μl of biotin-cAPP (10 nM, dissolved in Buffer A) was then added. After incubating for 15 minutes, 1 μL of GST-PTB2 (20 nM in Buffer A) was added and the plate was incubated once again for 15 minutes. 4 μl of antibody mixture (Streptavidin labeled with Eu-cryptate, […] per well; monoclonal anti-GST antibody labeled with XL665, […] in Buffer B) were then added. After 30 minutes at room temperature, the emission signal of the energy transfer, and the europium signal, were measured at 665 nm and 615 nm in a Tecan ultraphotometer after the test solution had been activated with light at a wavelength of 340 nm.
The IC50 values listed in Table 1 were found for the inhibition of the amyloid precursor protein—FE65 interaction.

[2] = Solubility (appearance / physicochemical properties); settings: for Solubility in organic solvents: medium-polar and polar organic solvents
[3] = Stability in solution (appearance / physicochemical properties)

SMILES | Inhibition of the APP-FE65 interaction (in words) [1] | IC50 [1] [µM] | Solubility in organic solvents [2] | Solubility in water [2] | Stability in neutral and mildly acidic medium [3] | Stability in strongly acid and strongly alkaline solutions [3]
C/C=C/C=C/C1C(C)=CC2CC(C)CCC2C1(C)/C(O)=C1\C(=O)NC(C(C)O)C1=O (centres unmarked) [Coniosetin, coniosetin] | inhibits the APP-FE65 reaction | 28 | soluble | not particularly soluble | Stable | unstable
CC(=O)NCC(=O)N/C(=C\SC/C=C(\C)CC/C=C(\C)CCC=C(C)C)C(=O)O [Coniosulfide A] |  | 2.3 | soluble | not particularly soluble | Stable | unstable
CC(=O)NCC(=O)N/C(=C\SC/C=C(\C)CC/C=C(\C)CCC(C)=C(C)C)C(=O)O [Coniosulfide B] |  | 2.6 | soluble | not particularly soluble | Stable | unstable
CC(=O)NCC(=O)NCC(=O)N/C(=C\SC/C=C(\C)CC/C=C(\C)CCC=C(C)C)C(=O)O [Coniosulfide C] |  | 3.8 | soluble | not particularly soluble | Stable | unstable
CC(=O)NCC(=O)NCC(=O)N/C(=C\SC/C=C(\C)CC/C=C(\C)CCC(C)=C(C)C)C(=O)O [Coniosulfide D] |  | 3.8 | soluble | not particularly soluble | Stable | unstable
